The record followed here is patent publication US11680264B2, “Methods of modulating melanosome pH and melanin level in cells” (Cornell University, priority 2016, dated 2023).

Each structure is given as a SMILES string.

One test concerns C3H/HeJ mice. Briefly: Topical treatment of ear, epidermal pigmentation (Fontana Masson). The class given is in vivo, mouse. The settings on record: topical on right ear, twice a day for two weeks. The method, then:
Melanocytes also exist in the epidermis at specific areas of mouse skin (e.g., pinnae) (Nordlund et al., Dermatol Clin., 4(3): 407-418 (1986)); thus, these areas were studied to examine the role of sAC in epidermal pigmentation. For analysis of epidermal pigmentation, using C3H/HeJ mice as above, 20 μl of KH7 ([…]), LRE1 (28 mg/ml) or DMSO (vehicle control) was topically applied on the right ear and DMSO was topically applied on the left ear twice a day for two weeks. Ear skin was monitored daily for irritation and changes in pigmentation. After two weeks, mice were euthanized and the treated skin was submitted to a blinded animal pathologist for histological evaluation of the epidermis and special stains (Fontana Masson). This experiment was performed twice with 3 mice per cohort (total n=6)

For test [1], the system named is sAC^KO mouse melanocytes. Briefly: DAMP melanosome pH assay (HMB45 co-staining). As to conditions: 4 hours, KH7 30 μM, cAMP analogs 500 μM, ESI-09 10 μM, MSH 100 nM. The class given is cell-based. The protocol:
(§1) N-{3-[(2,4-dinitrophenyl)amino]propyl}-N-(3-aminopropyl)methylamine dihydrochloride (DAMP) is a weakly basic amine that is taken up in acidic organelles of live cells and which has been used to measure melanosome pH (Bin et al., PLOS One, 10(6):e0129273 (2015); Tabata et al., Cell Tissue Res., 332(3): 447-460 (2008)). Cells were cultured on sterile glass coverslips in 24-mm wells at 50×10^3 cells/coverslip. […] After permeabilization with 0.1% Triton X-100 in Buffer A at −20° C., the cells were labeled with the supplied anti-DNP antibody (Oxford Biomedical Research) according to kit protocol. Melanosomes were identified using the monoclonal antibody (anti-HMB45, 1:40, Santa Cruz Biotechnology). Fluorescence was detected after secondary staining with Alexa Fluor 546 donkey anti-goat IgG antibody (Invitrogen) and Alexa Fluor 647 donkey anti-mouse IgG antibody (Invitrogen). All quantitative analyses were performed using the Object Count tool in Nikon AR 4.60. For each image, the lower intensity threshold limit of each fluorescence channel was defined as the intensity of the dimmest punctum returned using the 3 points circle threshold tool. The upper intensity threshold limit was set to the maximum value. Equivalent diameter (EqDiameter) was restricted to 1.85-30.00 pixels. Circularity was restricted to 0.20-1.00. Mean fluorescence intensity was measured for all DAMP^+ puncta. Melanosomes were identified as HMB45^+ puncta. DAMP measurements were only recorded when colocalized with HMB45. Frequency distributions were generated for each sample from mean DAMP fluorescence intensity of DAMP^+ melanosomes. All analyses were performed on two replicate coverslips (n≥15 cells per coverslip). Melanosomes were first identified as TRP1^+ or tyrosinase^+ puncta. sAC^+ melanosomes were identified as R52^+ or R21^+ puncta colocalizing with TRP1^+ or tyrosinase^+ puncta. The degree of colocalization between sAC and melanosomes was calculated as the number of sAC+ melanosomes divided by the total number of melanosomes and expressed as a percentage.
(§2) The effect of pharmacologic inhibition of sAC was also measured using the DAMP assay described above. Briefly, Cells were cultured on sterile glass coverslips in 24-mm wells at 50×10^3 cells/coverslip and treated or not treated for 4 hours with 30 μM KH7 or LRE1. […] After permeabilization with 0.1% Triton X-100 in Buffer A at −20° C., the cells were labeled with the supplied anti-DNP antibody (Oxford Biomedical Research) according to kit protocol. Melanosomes were identified using the monoclonal antibody (anti-HMB45, 1:40, Santa Cruz Biotechnology). Fluorescence was detected after secondary staining with Alexa Fluor 546 donkey anti-goat IgG antibody (Invitrogen) and Alexa Fluor 647 donkey anti-mouse IgG antibody (Invitrogen). All images were acquired using a Zeiss LSM 880 and analyzed using NIS-Elements AR 4.60 (Nikon).

Test [2] deals with sAC^FF mouse melanocytes. Description: DAMP melanosome pH assay (HMB45 co-staining). The class given is cell-based. The settings on record: KH7 30 μM, 4 hours. The protocol:
as §1, §2

Test [3] deals with sAC^KO mouse melanocytes. Description: Cellular eumelanin content. The class given is cell-based. As to conditions: 96 hours. The protocol:
(§3) FIGS. 15A-15J provide the results of experiments analyzing the effect of sAC activity on melanin production. FIG. 15A is a graph illustrating the cellular eumelanin and pheomelanin content in sAC^FF (FF) and sAC^KO (KO) mouse melanocytes. Numbers above bars represent the ratio of pheomelanin to eumelanin. Average of triplicate determinations. FIG. 15B is a graph illustrating the cellular eumelanin content of sAC^FF and sAC^KO mouse melanocytes grown for 96 hours in the absence (−, DMSO) or presence of KH7 (+, 30 μM). Average of triplicate determinations. FIG. 15C is a graph illustrating the fold over baseline cellular eumelanin level of human melanocytes (n=8) treated with KH7 (30 μM) or vehicle (DMSO) for 48 hours. All assays performed in triplicate. Students t-test **P<0.01, ****P<0.0001. FIG. 15D is images of cell pellets of sAC^FF and sAC^KO mouse melanocytes. FIG. 15E is a graph of the melanin levels of pairs of sAC^FF and sAC^KO mouse melanocytes. FIGS. 15F and 15G are images of cell pellets of sAC^FF mouse melanocytes grown in the absence (DMSO, FIGS. 15G and 15F, left panels) or presence of KH7 (FIG. 15G, 30 μM, right panel) or LRE1 (FIG. 15F, 50 μM, right panel) for 96 hours. FIG. 15H is images of cell pellets of human melanocytes (C226, C38) treated with vehicle control (DMSO, left) or KH7 (30 μM, right) for 48 hours. FIG. 15I is images of cell pellets of human melanocytes (C226) treated with vehicle control (DMSO, left) or ESl-09 (10 μM, right) for 48 hours. FIG. 15J is a graph illustrating the fold over baseline cellular (eumelanin) level of human melanocytes treated with ESl-09 (10 μM) or vehicle (DMSO) for 48 hours (n=3, distinct human cell lines). For FIGS. 15E and 15J Students t-test, *p<0.05, **p<0.01, ****p<0.0001.

The test system of test [4] is sAC^FF mouse melanocytes. Description: Cellular eumelanin content. As to conditions: KH7 30 μM or LRE1 50 μM, 96 hours. The test is classed as cell-based. The protocol: as §3

Regarding `CC(Sc1nc2ccccc2[nH]1)C(=O)N/N=C/c1cc(Br)ccc1O` (stereo not shown) [KH7], the “colour of ear epidermis relative to vehicle control” value in the test on C3H/HeJ mice (20 μl KH7 or LRE1 (28 mg/ml)) is given as “induced visual darkening of mouse ear epidermis”. In addition, in the test with C3H/HeJ mice, the “epidermal melanin accumulation (Fontana Masson)” value was “increase in epidermal melanin accumulation”. For the same compound, the “melanosome pH (DAMP), substance alone” value in the test with sAC^KO mouse melanocytes [1] is on record as “had no effect”. In the test with sAC^FF mouse melanocytes [2] (mouse melanocytes), the HMB45 staining intensity result is reported as “had no effect”. The “melanosome pH (DAMP uptake at HMB45 positive melanosomes), substance alone” value with sAC^FF mouse melanocytes [2] (sAC^FF mouse melanocytes, cAMP 500 μM, H89 10 μM, PKI 10 μM, ESI-09 10 μM) is “reduction in DAMP uptake (alkaline shift in pH)”. Also, the eumelanin levels entry in the test with sAC^KO mouse melanocytes [3] is given as “had no effect”; in the test with sAC^FF mouse melanocytes [4] it was “increased eumelanin levels”.
